According to ChEMBL document CHEMBL1129561 (J Med Chem, 1996):

Key:
[1] = target: T1, Mineralocorticoid receptor (Homo sapiens, UniProt P08235)
T1 sequence (P08235 whole entry): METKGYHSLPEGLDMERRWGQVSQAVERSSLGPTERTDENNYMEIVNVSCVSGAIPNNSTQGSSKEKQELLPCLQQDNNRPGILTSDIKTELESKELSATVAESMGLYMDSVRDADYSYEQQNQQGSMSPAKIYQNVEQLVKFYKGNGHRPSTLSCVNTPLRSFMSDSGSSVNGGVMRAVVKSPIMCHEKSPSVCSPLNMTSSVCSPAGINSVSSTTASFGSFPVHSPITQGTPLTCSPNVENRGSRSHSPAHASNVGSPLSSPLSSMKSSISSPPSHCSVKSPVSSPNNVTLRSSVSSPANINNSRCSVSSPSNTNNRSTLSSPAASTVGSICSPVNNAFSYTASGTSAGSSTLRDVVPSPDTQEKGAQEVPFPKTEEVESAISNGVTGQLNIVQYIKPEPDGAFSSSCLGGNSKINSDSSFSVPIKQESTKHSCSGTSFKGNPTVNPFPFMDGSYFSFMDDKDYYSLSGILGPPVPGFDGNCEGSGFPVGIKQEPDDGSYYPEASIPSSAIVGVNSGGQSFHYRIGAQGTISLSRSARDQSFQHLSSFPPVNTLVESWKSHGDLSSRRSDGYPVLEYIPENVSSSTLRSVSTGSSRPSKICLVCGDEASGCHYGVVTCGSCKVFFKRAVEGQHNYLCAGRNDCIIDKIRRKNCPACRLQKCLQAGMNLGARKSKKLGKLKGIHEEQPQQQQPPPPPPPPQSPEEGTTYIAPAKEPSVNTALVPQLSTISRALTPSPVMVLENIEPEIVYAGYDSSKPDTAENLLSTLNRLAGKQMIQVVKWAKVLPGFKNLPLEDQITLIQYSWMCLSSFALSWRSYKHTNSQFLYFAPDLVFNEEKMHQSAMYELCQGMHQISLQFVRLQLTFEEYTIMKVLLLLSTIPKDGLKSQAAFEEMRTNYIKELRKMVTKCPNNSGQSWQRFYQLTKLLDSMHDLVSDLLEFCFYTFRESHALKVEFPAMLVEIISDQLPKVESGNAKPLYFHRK
Description: Inhibitory activity against human mineralocorticoid receptor (hMR)

Glucocorticoid receptor = target: T2, Glucocorticoid receptor (Homo sapiens, UniProt P04150)
T2 sequence (P04150 whole entry): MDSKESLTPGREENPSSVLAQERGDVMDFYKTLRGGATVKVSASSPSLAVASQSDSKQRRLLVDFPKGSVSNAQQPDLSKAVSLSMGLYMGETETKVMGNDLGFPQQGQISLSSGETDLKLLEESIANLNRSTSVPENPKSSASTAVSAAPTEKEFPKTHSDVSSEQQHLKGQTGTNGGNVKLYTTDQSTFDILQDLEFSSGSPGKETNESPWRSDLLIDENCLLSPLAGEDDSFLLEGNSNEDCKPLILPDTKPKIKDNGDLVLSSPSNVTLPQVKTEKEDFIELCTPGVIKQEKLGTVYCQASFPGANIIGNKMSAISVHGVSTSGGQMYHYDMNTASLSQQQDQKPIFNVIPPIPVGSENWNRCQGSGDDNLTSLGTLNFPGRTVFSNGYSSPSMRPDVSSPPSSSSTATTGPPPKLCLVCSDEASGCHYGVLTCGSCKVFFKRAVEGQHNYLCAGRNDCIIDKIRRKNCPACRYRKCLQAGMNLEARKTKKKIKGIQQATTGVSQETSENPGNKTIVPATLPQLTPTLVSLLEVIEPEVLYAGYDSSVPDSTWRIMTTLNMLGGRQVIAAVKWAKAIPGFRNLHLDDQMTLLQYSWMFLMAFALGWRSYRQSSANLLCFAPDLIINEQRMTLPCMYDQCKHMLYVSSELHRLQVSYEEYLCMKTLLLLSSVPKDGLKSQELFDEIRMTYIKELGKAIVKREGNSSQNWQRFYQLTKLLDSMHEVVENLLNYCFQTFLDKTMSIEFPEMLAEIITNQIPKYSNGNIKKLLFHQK
Description: Binding affinity was determined for human glucocorticoid receptor(hGR).

Androgen receptor = target: T3, Androgen receptor (Homo sapiens, UniProt P10275)
T3 sequence (P10275 whole entry): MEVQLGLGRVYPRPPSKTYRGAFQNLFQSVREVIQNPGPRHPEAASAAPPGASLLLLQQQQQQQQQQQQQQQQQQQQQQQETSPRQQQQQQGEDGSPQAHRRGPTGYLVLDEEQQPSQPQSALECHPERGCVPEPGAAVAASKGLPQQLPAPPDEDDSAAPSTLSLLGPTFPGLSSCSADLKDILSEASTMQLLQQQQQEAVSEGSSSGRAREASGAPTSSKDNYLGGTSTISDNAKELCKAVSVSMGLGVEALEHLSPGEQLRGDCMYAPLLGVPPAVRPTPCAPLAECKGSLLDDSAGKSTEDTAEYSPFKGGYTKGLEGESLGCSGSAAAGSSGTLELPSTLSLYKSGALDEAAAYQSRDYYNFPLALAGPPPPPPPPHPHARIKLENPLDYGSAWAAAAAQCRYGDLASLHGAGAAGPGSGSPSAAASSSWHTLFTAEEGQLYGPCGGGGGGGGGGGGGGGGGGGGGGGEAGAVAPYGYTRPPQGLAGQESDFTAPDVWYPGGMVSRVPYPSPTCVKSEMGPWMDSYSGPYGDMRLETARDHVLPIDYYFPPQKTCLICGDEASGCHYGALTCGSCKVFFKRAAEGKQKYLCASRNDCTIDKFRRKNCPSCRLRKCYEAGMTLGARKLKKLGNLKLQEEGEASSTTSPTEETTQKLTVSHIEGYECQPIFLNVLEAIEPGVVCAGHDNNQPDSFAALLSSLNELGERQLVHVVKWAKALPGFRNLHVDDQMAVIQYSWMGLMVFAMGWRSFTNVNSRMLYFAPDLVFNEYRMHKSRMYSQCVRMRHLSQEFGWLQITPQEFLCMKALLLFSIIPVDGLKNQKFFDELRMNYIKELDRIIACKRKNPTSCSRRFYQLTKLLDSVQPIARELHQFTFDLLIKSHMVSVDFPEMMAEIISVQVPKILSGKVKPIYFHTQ
Description: Inhibitory activity against human Androgen receptor

C=C1C=C(C)CC(C)(C)C1Cc1ccc([N+](=O)[O-])cc1 (stereo not drawn)
IC50 [1]: > 10 µM | Ki (Glucocorticoid receptor): 5.42 µM | IC50 (Androgen receptor): 0.25 µM
